Results from publication PMC4721142, “Randomized controlled studies on the efficacy of antiarthritic agents in inhibiting cartilage degeneration and pain associated with progression of osteoarthritis in the rat” (Arthritis Research & Therapy, 2016).
Where “and” joins values, the source holds several entries; their conditions need not be identical. Equal entries are not always repeated.

Legend:
[1] = tested on: MMP-13; test: MMP-13 ELISA on supernatants of TNF-α-treated chondrogenic pellets; format: cell-based, human
[2] = tested on: MMT/MCLT rat model of OA; test: MMT/MCLT trial 1 weight bearing (daily morphine 10 mg/kg, tacrolimus 0.3 or 0.6 mg/kg, fluocinolone 5 or 10 μg/kg, clonidine 100 μg/kg, alendronate 10 μg/kg i.p.; curcumin, withaferin 50 mg/kg p.o.); format: in vivo; conditions: low or only dose
Description: Weight bearing (WB; incapacitance) was measured five times per day, once per week, using a Linton incapacitance meter (Stoelting Co., Wood Dale, IL, USA). Rats were acclimated to the meter before study initiation, and, similarly, immediately before WB, the animals were placed in the meter and allowed to acclimate for 2–5 minutes. Each hind paw was placed on a separate force plate so that the force exerted by each side could be averaged over a 5-second interval, and the mean of three readings was taken for each data point. Right paw force was compared with that on the left side for each group to confirm that animals were displaying incapacitance and/or pain behavior. Differences in force (left minus right) and right paw force as a percentage of the total force exerted by both paws were determined and compared between groups.
Following isoflurane anesthesia, the medial collateral ligament was transected just below its attachment to the meniscus in the right knee. The meniscus was cut at its narrowest point away from the ossicles so as not to damage the tibial surface and to ensure that the anterior and posterior meniscus halves were freely movable. […] In trial 2, drugs were administered IA weekly beginning 1 week following surgery. Three weeks postsurgery, animals were humanely killed and their right knees were collected for histopathology. All studies were conducted in accordance with the International Association for the Study of Pain Guidelines and were approved by the Bolder BioPATH IACUC (Boulder, CO, USA) in compliance with regulations before study initiation (IACUC protocol BBP03-006). Those running the studies were blinded to the treatments. See Additional file 1 for further details.
Isoflurane and the right knee area prepared for surgery. A skin incision was made over the medial aspect of the knee and the medial collateral ligament was exposed by blunt dissection and then transected. The medial meniscus was cut through the full thickness to simulate a complete tear and the skin was then closed with suture.
All pharmaceutical agents were prepared and stored as recommended by the supplier. Daily drug preparations were made fresh from stock solutions. […]
In Trial 2 drugs were […]
administered IA weekly beginning one week following surgery. […]
were delivered by gavage and were prepared in 0.3% Methyl Cellulose.
WB was measured five times a day, once a week, using a Linton incapacitance meter (Stoelting Co.) to assess pain behavior. Rats were acclimated to the incapacitance meter prior to study initiation.
Similarly, immediately prior to WB animals were placed in the incapacitance meter and allowed to acclimate for 2-5 minutes. Each hind paw was placed on a separate force plate so that the force exerted by each side could be averaged over a 5 second interval and the mean of three readings taken for each data point. Right paw force was compared to left for each group to confirm that animals were displaying incapacitance / pain behavior. Difference in force (left minus right) and right paw force as a percentage of the total force exerted by both paws were determined and compared between groups. Three weeks after surgery, animals were humanely euthanized and right knees collected for histopathology evaluation.
Figure 2. MMT/MCLT Trial Timeline […]
MMT/MCLT Dosing (once/day)
The study design and animal usage was approved by Bolder BioPATH’s Institutional Animal Care and Use Committee (IACUC) for compliance with regulations prior to study initiation (IACUC […]
Labs. Animals were identified by a distinct mark at the base of the tail delineating group and animal number. After randomization, all cages were labeled with protocol number, group numbers, and animal numbers with appropriate color-coding (see protocol).

[3] = tested on: MMT/MCLT rat model of OA; test: MMT/MCLT trial 1 histopathology (same doses); format: in vivo; conditions: low or only dose
From the text: For MMT/MCLT rat knee joints, sections were cut in 200-μm steps; stained with toluidine blue (also with a right and left half per section); and similarly analyzed for cartilage degeneration, proteoglycan loss, collagen damage, and osteophyte formation. Results were averaged across the three sections for an overall semiquantitative score. Regional differences across the tibial plateau were taken into consideration by dividing each section into three zones delineated using an ocular micrometer (outside, middle, and inside). Scores were based on the percentage of area affected within the zone.
Cartilage degeneration in the tibia was scored on a 5-point scale as detailed in the Methods section of Additional file 1. The total extent of degeneration of the tibial plateau was measured (in micrometers) and included an analysis of cell loss, proteoglycan loss, and collagen damage. Significant cartilage degeneration reflecting any degeneration extending through more than 50 % of the cartilage thickness was also measured. Collagen damage across the medial tibial plateau (the most severely affected section of the two halves) was also quantified.
Osteophytes and femoral cartilage degeneration were analyzed as detailed in Additional file 1. Scoring of the osteophytes and categorization into small, medium, and large was performed using an ocular micrometer. The actual osteophyte measurement (tidemark to farthest distance point extending toward the synovium) was also recorded. The femoral cartilage degeneration score and the three-zone sum of the tibial cartilage degeneration scores (mean of three levels) were summed to create a total cartilage degeneration score. The mean osteophyte score for each joint was added to this value to create a total joint score. […]
Histopathology MMT/MCLT Model

Structure (SMILES): NCCCC(O)(P(=O)(O)O)P(=O)(O)O [Alendronate, Alendronate sodium]
- Effective range against MMP-13 [1]: Not effective
- Weight bearing, hours with significant effect ([2]; day 7): 5 h
- Weight bearing, hours with significant effect ([2]; day 14): 1 h
- Bone score ([3]; mean): 2.75
- Femoral cartilage degeneration score ([3]; mean): 1.79 and 1.79 ± 0.60
- Tibial cartilage degeneration score, 3-zone total ([3]; mean): 5.83
- Tibial cartilage degeneration score, zone 1 ([3]; mean): 3.79
- Tibial cartilage degeneration score, zone 2 ([3]; mean): 2.04
- Tibial cartilage degeneration score, zone 3 ([3]; mean): 0.00
- Tibial cartilage degeneration width, significant ([3]; mean): 650.00 µm
- Tibial cartilage degeneration width, total ([3]; mean): 1175.00 µm
- Tibial osteophyte measure ([3]; mean): 479.17 µm
- Tibial osteophyte score ([3]; mean): 3.63
- Total joint score ([3]; mean): 11.25
- Total joint score w/o femur ([3]; mean): 9.46
- % decrease, bone score ([3]; vs saline group): 15%
- % decrease, femoral cartilage degeneration score ([3]; vs saline group): 2%
- % decrease, osteophyte measure ([3]; vs saline group): 7%
- % decrease, osteophyte score ([3]; vs saline group): 7%
- % decrease, significant degeneration width ([3]; vs saline group): 11%
- % decrease, tibial score 3-zone total ([3]; vs saline group): 11%
- % decrease, tibial score zone 1 ([3]; vs saline group): 12%
- % decrease, tibial score zone 2 ([3]; vs saline group): 8%
- % decrease, tibial score zone 3 ([3]; vs saline group): 100%
- % decrease, total degeneration width ([3]; vs saline group): 10%
- % decrease, total joint score ([3]; vs saline group): 8%
- % decrease, total joint score w/o femur ([3]; vs saline group): 10%
